The text below walks through data of article PMC4704194, “Structural Basis of Metallo-β-Lactamase Inhibition by Captopril Stereoisomers” (Antimicrobial Agents and Chemotherapy, 2015).

Each structure is given as a SMILES string. Values after ≈ are worked out from the molar mass of the structure shown.

The target in one test is VIM-4 (Pseudomonas aeruginosa, UniProt Q8KRJ3). The experiment in a line: MBL inhibition assay, VIM-4. It is filed as biochemical.
In test [1] the target is hydroxyacylglutathione hydrolase, human glyoxylase II (hHAGH) (Homo sapiens, UniProt Q16775). The experiment in a line: Inhibition assay, hHAGH. The class given is biochemical. To be noted: at 100 μM, standard assay conditions.
Description: (§3) Kinetic and inhibition assays with the bacterial MBLs, human angiotensin-converting enzyme 2 (hACE-2), and hydroxyacylglutathione hydrolase, human glyoxylase II (hHAGH), were performed as described previously ([7], [27]).
Test [2] has as its target human angiotensin-converting enzyme 2 (hACE-2) (Homo sapiens, UniProt Q9BYF1). As to the kind of experiment: Inhibition assay, hACE-2. It is filed as biochemical. To be noted: at 100 μM, standard assay conditions.
Description: as §3
Another test deals with CphA. To be noted: B2 MBL ref 18; cited from earlier work.
The target of another test is FEZ-1. Also on record: method as in PMID 12507470. The following applies: B3 MBL ref 23; cited from earlier work.
A further test deals with T1, DCLRE1A (Homo sapiens, UniProt Q6PJP8).
T1 sequence (Q6PJP8 608-1040 limits assumed): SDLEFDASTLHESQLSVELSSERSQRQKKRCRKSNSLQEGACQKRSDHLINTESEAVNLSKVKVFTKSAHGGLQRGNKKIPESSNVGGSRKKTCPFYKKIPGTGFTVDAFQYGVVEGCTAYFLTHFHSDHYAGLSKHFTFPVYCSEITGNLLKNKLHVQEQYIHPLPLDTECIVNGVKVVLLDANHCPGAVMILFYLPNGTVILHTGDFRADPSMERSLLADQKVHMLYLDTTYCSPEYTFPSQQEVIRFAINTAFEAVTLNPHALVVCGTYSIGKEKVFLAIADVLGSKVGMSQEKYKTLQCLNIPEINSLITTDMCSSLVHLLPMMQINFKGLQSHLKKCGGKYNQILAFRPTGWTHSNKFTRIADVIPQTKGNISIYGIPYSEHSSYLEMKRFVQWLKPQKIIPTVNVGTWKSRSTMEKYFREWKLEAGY
As to the kind of experiment: Nuclease assay, DCLRE1A. The following applies: at 100 μM, standard assay conditions.

The target in the next test is T2, DCLRE1B (Homo sapiens, UniProt Q9H816).
T2 sequence (Q9H816 1-335 limits assumed): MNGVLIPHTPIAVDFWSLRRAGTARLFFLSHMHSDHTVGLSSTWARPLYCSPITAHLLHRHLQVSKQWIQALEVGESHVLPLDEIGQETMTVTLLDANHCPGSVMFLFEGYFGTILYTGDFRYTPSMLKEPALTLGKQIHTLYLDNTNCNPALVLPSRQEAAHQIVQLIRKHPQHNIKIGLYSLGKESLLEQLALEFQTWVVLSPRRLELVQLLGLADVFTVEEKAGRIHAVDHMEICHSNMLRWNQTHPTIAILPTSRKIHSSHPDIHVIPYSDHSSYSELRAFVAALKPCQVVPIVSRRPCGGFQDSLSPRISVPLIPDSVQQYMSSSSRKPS
The experiment in a line: Nuclease assay, DCLRE1B. To be noted: at 100 μM, standard assay conditions.

The next test has as its target T3, VIM-2 (Escherichia coli, UniProt Q5U7L7).
T3 construct: made in house; host or cells: Escherichia coli
As to the kind of experiment: biochemical. To be noted: means ± standard deviations, three or more experiments.

A further test has as its target T4, NDM-1 (Klebsiella pneumoniae, UniProt C7C422).
T4 construct: made in house; host or cells: Escherichia coli
As to the kind of experiment: biochemical.

Another test addresses BcII (Bacillus cereus, UniProt P04190). As to the kind of experiment: MBL inhibition assay, BcII.
The target in another test is IMP-1 (Serratia marcescens, UniProt P52699). As to the kind of experiment: MBL inhibition assay, IMP-1.
The target of another test is SPM-1 (Pseudomonas aeruginosa, UniProt Q8G9Q0). The experiment in a line: MBL inhibition assay, SPM-1.
A further test has as its system E. coli 25922. The experiment in a line: MIC, broth microdilution. The class given is cell-based, Escherichia coli. To be noted: E. coli 25922 (negative control); captopril where added at 8 mg/liter. An excerpt:
(§1) The bacteria used were nonclonal international isolates whose mechanisms of carbapenem resistance have been defined genetically by sequencing. […] MBL genes were obtained by PCR using standard procedures and were inserted into a pK18 vector which was used to transform E. coli J53 ([34]). Transconjugants were obtained with MBL genes carried on native wild-type plasmids conjugated into J53 ([35]). Both transformants and transconjugants were confirmed by DNA sequencing and verified for MBL production by using MTS MBL strips (Liofilchem, Roseto, Italy). […] MICs were determined using the broth microdilution method according to CLSI guidelines. Strains were cultured and tested in cation-adjusted Mueller-Hinton agar and broth (Becton Dickinson).
In general terms: Dilution methods test growth across graded concentrations, often in twofold steps.

A further test deals with E. coli IR10 (NDM-1). As to the kind of experiment: MIC, broth microdilution. The class given is cell-based, Escherichia coli. To be noted: captopril where added at 8 mg/liter. An excerpt:
(§2) The bacteria used were nonclonal international isolates whose mechanisms of carbapenem resistance have been defined genetically by sequencing. E. coli ATCC 25922 was used as a negative control. MBL genes were obtained by PCR using standard procedures and were inserted into a pK18 vector which was used to transform E. coli J53 ([34]). Transconjugants were obtained with MBL genes carried on native wild-type plasmids conjugated into J53 ([35]). Both transformants and transconjugants were confirmed by DNA sequencing and verified for MBL production by using MTS MBL strips (Liofilchem, Roseto, Italy). Additionally, 5 Escherichia coli (with NDM-1), 10 Klebsiella pneumoniae (5 with NDM-1, 3 with VIM-4, and 2 with IMP-4), 1 Serratia marcescens (with IMP-4), and 2 Pseudomonas aeruginosa (with VIM-2 and AIM-1) isolates and E. coli ATCC 25922 were used in the test panel. MICs were determined using the broth microdilution method according to CLSI guidelines. Strains were cultured and tested in cation-adjusted Mueller-Hinton agar and broth (Becton Dickinson).

The subject of the next test is E. coli IR15 (NDM-1). As to the kind of experiment: MIC, broth microdilution. It is filed as cell-based, Escherichia coli. The following applies: captopril where added at 8 mg/liter.
Description: as §2

The test system of the next test is E. coli IR24 (NDM-1). The experiment in a line: MIC, broth microdilution. The class given is cell-based, Escherichia coli. To be noted: captopril where added at 8 mg/liter.
Description: as §2

Test [3] deals with E. coli J53 + IMP-1 clone. The experiment in a line: MIC, broth microdilution. To be noted: captopril where added at 8 mg/liter. The class given is cell-based, Escherichia coli.
Description: as §2

The test system of test [4] is E. coli J53 + NDM-1 clone. The experiment in a line: MIC, broth microdilution. It is filed as cell-based, Escherichia coli. The following applies: captopril where added at 8 mg/liter.
Description: as §2

Test [5] relates to E. coli J53 + VIM-2 clone. The experiment in a line: MIC, broth microdilution. The class given is cell-based, Escherichia coli. To be noted: captopril where added at 8 mg/liter.
Description: as §2

Test [6] deals with E. coli J53 + VIM-2 transconjugant. As to the kind of experiment: MIC, broth microdilution. The class given is cell-based, Escherichia coli. The following applies: captopril where added at 8 mg/liter.
Description: as §2

The test system of test [7] is K. pneumoniae A33 (VIM-4). As to the kind of experiment: MIC, broth microdilution. It is filed as cell-based, Klebsiella pneumoniae. To be noted: captopril where added at 8 mg/liter.
Description: as §2

For test [8], the system named is K. pneumoniae A34 (VIM-4). As to the kind of experiment: MIC, broth microdilution. To be noted: captopril where added at 8 mg/liter. It is filed as cell-based, Klebsiella pneumoniae.
Description: as §2

Test [9] has as its system K. pneumoniae A35 (VIM-4). As to the kind of experiment: MIC, broth microdilution. It is filed as cell-based, Klebsiella pneumoniae. The following applies: captopril where added at 8 mg/liter.
Description: as §2

Test [10] deals with K. pneumoniae B12 (IMP-4). The experiment in a line: MIC, broth microdilution. It is filed as cell-based, Klebsiella pneumoniae. To be noted: captopril where added at 8 mg/liter.
Description: as §2

Test [11] has as its system K. pneumoniae B19 (IMP-4). The experiment in a line: MIC, broth microdilution. To be noted: captopril where added at 8 mg/liter. The class given is cell-based, Klebsiella pneumoniae.
Description: as §2

Test [12] relates to K. pneumoniae HR8 (NDM-1). As to the kind of experiment: MIC, broth microdilution. The following applies: captopril where added at 8 mg/liter. The class given is cell-based, Klebsiella pneumoniae.
Description: as §2

Test [13] deals with K. pneumoniae IR19 (NDM-1). As to the kind of experiment: MIC, broth microdilution. The class given is cell-based, Klebsiella pneumoniae. The following applies: captopril where added at 8 mg/liter.
Description: as §2

Test [14] relates to K. pneumoniae IR8 (NDM-1). The experiment in a line: MIC, broth microdilution. It is filed as cell-based, Klebsiella pneumoniae. To be noted: captopril where added at 8 mg/liter.
Description: as §2

The subject of test [15] is K. pneumoniae N16 (NDM-1). The experiment in a line: MIC, broth microdilution. The following applies: captopril where added at 8 mg/liter. It is filed as cell-based, Klebsiella pneumoniae.
Description: as §2

Test [16] concerns S. marcescens B13 (IMP-4). The experiment in a line: MIC, broth microdilution. The class given is cell-based, Serratia marcescens. The following applies: captopril where added at 8 mg/liter.
Description: as §2

Test [17] concerns E. coli J53 + NDM-1 transconjugant. As to the kind of experiment: MIC, broth microdilution. The class given is cell-based, Escherichia coli. The following applies: captopril where added at 8 mg/liter.
Description: as §1

The IC50 is the concentration that inhibits the measured activity by half. Low readings indicate greater potency, high ones weaker potency. The Ki is the dissociation constant of the complex between target and ligand, obtained from inhibition or displacement. By MIC is commonly meant the least concentration at which growth counts as inhibited.

human angiotensin-converting enzyme 2 (hACE-2), sequence (Q9BYF1 18-805): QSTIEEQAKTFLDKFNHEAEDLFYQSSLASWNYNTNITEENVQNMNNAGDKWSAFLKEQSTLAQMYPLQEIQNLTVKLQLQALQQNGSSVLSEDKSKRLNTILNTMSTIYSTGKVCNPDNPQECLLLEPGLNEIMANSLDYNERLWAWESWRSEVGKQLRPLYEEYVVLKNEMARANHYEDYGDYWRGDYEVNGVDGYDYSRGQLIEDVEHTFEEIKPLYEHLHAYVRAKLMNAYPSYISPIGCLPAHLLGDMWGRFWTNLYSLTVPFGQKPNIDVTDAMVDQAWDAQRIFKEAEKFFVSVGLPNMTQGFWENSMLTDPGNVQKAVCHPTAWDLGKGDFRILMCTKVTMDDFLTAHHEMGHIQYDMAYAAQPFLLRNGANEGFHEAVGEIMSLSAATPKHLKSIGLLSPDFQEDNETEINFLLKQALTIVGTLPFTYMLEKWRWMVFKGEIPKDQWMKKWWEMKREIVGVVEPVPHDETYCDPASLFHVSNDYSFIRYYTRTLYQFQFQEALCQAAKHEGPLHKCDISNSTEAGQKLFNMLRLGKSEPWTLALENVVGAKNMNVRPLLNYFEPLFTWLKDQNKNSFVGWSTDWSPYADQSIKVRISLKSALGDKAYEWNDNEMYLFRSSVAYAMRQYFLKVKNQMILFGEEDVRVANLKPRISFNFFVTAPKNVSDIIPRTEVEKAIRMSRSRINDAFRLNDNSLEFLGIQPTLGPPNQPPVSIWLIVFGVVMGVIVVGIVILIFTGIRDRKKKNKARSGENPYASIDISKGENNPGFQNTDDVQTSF
IMP-1, sequence (P52699 19-246 limits assumed): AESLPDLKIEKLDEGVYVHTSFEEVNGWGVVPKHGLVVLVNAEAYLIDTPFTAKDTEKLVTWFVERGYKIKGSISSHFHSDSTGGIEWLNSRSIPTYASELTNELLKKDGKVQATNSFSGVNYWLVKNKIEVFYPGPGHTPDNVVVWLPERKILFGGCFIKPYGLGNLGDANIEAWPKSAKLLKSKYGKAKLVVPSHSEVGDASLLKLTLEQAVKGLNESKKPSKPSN
T4 sequence (C7C422 29-270 limits assumed): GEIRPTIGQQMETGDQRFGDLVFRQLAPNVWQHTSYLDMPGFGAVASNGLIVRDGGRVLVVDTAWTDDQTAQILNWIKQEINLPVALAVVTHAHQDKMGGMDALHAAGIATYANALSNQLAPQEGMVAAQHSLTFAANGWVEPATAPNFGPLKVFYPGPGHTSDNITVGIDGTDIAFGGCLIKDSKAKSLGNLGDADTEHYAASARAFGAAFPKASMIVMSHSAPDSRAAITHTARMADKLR
SPM-1, sequence (Q8G9Q0 entry or part of it): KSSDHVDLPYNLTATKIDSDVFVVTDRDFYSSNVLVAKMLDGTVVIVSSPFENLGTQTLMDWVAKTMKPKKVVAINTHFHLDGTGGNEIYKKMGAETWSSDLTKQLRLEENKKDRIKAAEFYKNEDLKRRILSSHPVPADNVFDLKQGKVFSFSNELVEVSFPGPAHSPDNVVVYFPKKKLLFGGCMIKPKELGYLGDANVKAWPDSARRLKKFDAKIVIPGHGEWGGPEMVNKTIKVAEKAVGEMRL
BcII, sequence (P04190 31-257): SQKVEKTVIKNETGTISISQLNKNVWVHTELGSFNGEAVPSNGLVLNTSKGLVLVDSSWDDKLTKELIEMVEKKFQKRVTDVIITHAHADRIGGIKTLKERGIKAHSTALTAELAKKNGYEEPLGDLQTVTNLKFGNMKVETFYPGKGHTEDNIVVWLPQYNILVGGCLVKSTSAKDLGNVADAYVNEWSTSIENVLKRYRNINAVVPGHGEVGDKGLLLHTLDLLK
Description for BcII: (§4) Recombinant forms of NDM-1, VIM-2, VIM-4, SPM-1, IMP-1, and BcII MBLs were produced in Escherichia coli as described previously ([27], [28]).
as §3
Description for DCLRE1A: (§5) Nuclease assays with DCLRE1A and DCLRE1B (DNA cross-link repair enzymes 1A and 1B) ([33]) were performed according to a previously described method ([33]), employing a 21-nucleotide DNA oligonucleotide with a fluorescein label at its 3′ end. In brief, exonuclease activity was measured using ΔN-DCLRE1A (3.5 ng; 8 nM) or ΔC-DCLRE1B (1.5 ng; 4 nM) mixed with 1 pmol (1 μM) of 3′-fluorescein-labeled DNA substrate in 10 μl of 20 mM HEPES, pH 7.9, 50 mM KCl, 10 mM MgCl2, 0.5 mM dithiothreitol (DTT), 0.05% Triton-X, 0.1 mg/ml bovine serum albumin (BSA), and 5% glycerol.
(§6) [SNM1A] = [SNM1B] = 0.8 nM; [21nt fluor-ssDNA] = 1 µM, assay time = 20 mins
Description for DCLRE1B: as §5, §6
Description for SPM-1: as §4, §3

In the case of `C[C@@H](CS)C(=O)N1CCC[C@H]1C(=O)O` [D-Captopril, (2S)-1-[(2R)-2-methyl-3-sulfanylpropanoyl] pyrrolidine-2-carboxylic acid], the half-maximal inhibitory concentration (IC50) on VIM-4 was determined as 1.7 ± 0.4 µM. The “inhibition of hHAGH” value in test [1] is recorded as “no inhibition”. Besides, the “inhibition of hACE-2” value in test [2] is listed as “no inhibition”. In addition, the inhibitory constant (Ki) was 72 µM at CphA and 400 µM on FEZ-1. Moreover, the “inhibition of DCLRE1A” value against DCLRE1A is on record as “no inhibition”. Also, at DCLRE1B, the “inhibition of DCLRE1B” value was “no inhibition”.
The compound `C[C@H](CS)C(=O)N1CCC[C@H]1C(=O)O` [L-Captopril, (2S)-1-[(2S)-2-Methyl-3-sulfanylpropanoyl] pyrrolidine-2-carboxylic acid] gave an IC50 on VIM-4 of 3.9 ± 0.5 µM. The “inhibition of hHAGH” value in test [1] is recorded as “no inhibition”. The “inhibition of hACE-2” value in test [2] was “no inhibition”. For the same compound, on DCLRE1A, the “inhibition of DCLRE1A” value was “no inhibition”. Further, the “inhibition of DCLRE1B” value at DCLRE1B is listed as “no inhibition”.
Regarding `O=C(O)C1CCCN1C(=O)c1ccccc1S` [D-MBP, 1-(2-mercaptobenzoyl)pyrrolidine-2-carboxylic acid], the IC50 on VIM-2, against NDM-1, on BcII, on IMP-1 and against SPM-1 was > 500 µM each time. For the same compound, in [1], the “inhibition of hHAGH” value is “no inhibition”. Moreover, the “inhibition of hACE-2” value in [2] is reported as “no inhibition”. For the same compound, the “inhibition of DCLRE1A” value at DCLRE1A is listed as “no inhibition”. Also, the “inhibition of DCLRE1B” value against DCLRE1B is listed as “no inhibition”.
In the case of `C[C@@H](O)[C@H]1C(=O)N2C(C(=O)O)=C(S[C@@H]3CN[C@H](C(=O)N(C)C)C3)[C@H](C)[C@H]12` [MEM, meropenem], the MIC in the test on E. coli 25922 was < 0.125 µg/mL; against E. coli IR10 (NDM-1), 64 µg/mL (≈ 167 µM); with E. coli IR15 (NDM-1) it was 8 µg/mL (≈ 20.9 µM); against E. coli IR24 (NDM-1), 512 µg/mL (≈ 1340 µM); in [3], 1 µg/mL (≈ 2.61 µM); in test [4] it was 64 µg/mL (≈ 167 µM). Moreover, the minimum inhibitory concentration (MIC) came to 8 µg/mL (≈ 20.9 µM) in test [5]; 2 µg/mL (≈ 5.22 µM) in test [6]; 8 µg/mL (≈ 20.9 µM) in test [7]; 8 µg/mL (≈ 20.9 µM) in test [8]; 16 µg/mL (≈ 41.7 µM) in [9]; 8 µg/mL (≈ 20.9 µM) in [10]. The MIC worked out at 32 µg/mL (≈ 83.4 µM) in [11]; 64 µg/mL (≈ 167 µM) in test [12]; 8 µg/mL (≈ 20.9 µM) in [13]; 16 µg/mL (≈ 41.7 µM) in test [14]; 32 µg/mL (≈ 83.4 µM) in test [15]; 4 µg/mL (≈ 10.4 µM) in [16].
On to `CC(C)(O/N=C(\C(=O)N[C@@H]1C(=O)N2C(C(=O)[O-])=C(C[n+]3ccccc3)CS[C@H]12)c1csc(N)n1)C(=O)O` [CFZ, ceftazidime], for which the minimum inhibitory concentration (MIC) was determined as 512 µg/mL (≈ 937 µM) in test [17]; 128 µg/mL (≈ 234 µM) in [3]; 512 µg/mL (≈ 937 µM) in test [4]; 32 µg/mL (≈ 58.5 µM) in test [5]; 32 µg/mL (≈ 58.5 µM) in test [6].
